Measurements as given in ChEMBL document CHEMBL4418317, “Piperidinyl- and piperazinyl-substituted heteroaromatic carboxamides as modulators of gpr6” (2018).

Target: G-protein coupled receptor 6 (Homo sapiens, UniProt P46095)
Test: Modulator activity at GPR6 receptor (unknown origin) expressed in CHO-K1 cells assessed as inhibition of constitutive cAMP activity incubated for 45 mins by Eu-cAMP tracer based HTRF Ultra cAMP assay
Format: functional, cell-based

G-protein coupled receptor 6, sequence (P46095 whole entry): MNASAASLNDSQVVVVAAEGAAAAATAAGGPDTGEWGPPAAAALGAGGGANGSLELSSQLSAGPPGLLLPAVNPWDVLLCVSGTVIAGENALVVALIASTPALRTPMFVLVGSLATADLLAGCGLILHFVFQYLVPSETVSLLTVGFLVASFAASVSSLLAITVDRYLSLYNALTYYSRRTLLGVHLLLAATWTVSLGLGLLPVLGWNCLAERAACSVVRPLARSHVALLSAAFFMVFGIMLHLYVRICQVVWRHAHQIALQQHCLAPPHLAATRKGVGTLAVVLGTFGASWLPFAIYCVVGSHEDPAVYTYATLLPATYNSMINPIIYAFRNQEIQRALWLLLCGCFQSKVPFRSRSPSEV

| EC50 [nM] | Compound |
| --- | --- |
| 2000 | Cn1cccc(C(=O)Nc2cc(C#N)ccc2N2CCC(Oc3cc(F)cc(F)c3)CC2)c1=O |
| 2000 | Cc1nc(C(=O)Nc2cc(C#N)ccc2N2CCC(Oc3ccc(F)cc3F)CC2)no1 |

| Compound | EC50 [nM] |
| --- | --- |
| N#Cc1ccc(N2CCC(Oc3ccc(F)cc3F)CC2)c(NC(=O)c2cccn(Cc3ccccc3)c2=O)c1 | 2000 |
